From patent US12077503B2, “Substituted cyclic amides and their use as herbicides” (FMC CORPORATION, priority 2015, dated 2024)

Experiments:
Type in all cases: in vivo
[1] = system: barnyardgrass (Echinochloa crus-galli); assay: Test G Post-Emergence Protocol; settings: Echinochloa crus-galli, post-emergence, 312 h; for pest or weed control at 15.625 g/ha: 15.625 g ai/ha, evaluated after 13 days (100=total damage to plant; 0=no damage to plant), read-out: Barnyardgrass damage rating; for pest or weed control at 62.5 g/ha: 62.5 g ai/ha, read-out: Barnyardgrass damage rating (100=total damage to plant; 0=no damage to plant); for pest or weed control at 62.5 g/ha / pest or weed control at 250 g/ha: evaluated after 13 days; for pest or weed control at 250 g/ha: 250 g ai/ha, read-out: damage to plant, Barnyardgrass (100=total damage to plant; 0=no damage to plant)
How it was run: (§1)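 Seedlings grown 8 days in soil in a glasshouse (24/16 °C day/night, 14 h light, 65% humidity) were sprayed post-emergence with compound in acetone/water 50:50 plus 0.5% Tween 20 at 15.625, 62.5 or 250 g/ha. Damage was scored after 13 days on a 0–100 scale (100 = total damage).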

corn (Zea mays) [2] = assay: Test G Post-Emergence Protocol; settings: Zea mays, post-emergence, 312 h; for plant injury at 15.625 g/ha: 15.625 g ai/ha, evaluated after 13 days (100=total damage to plant; 0=no damage to plant), read-out: Corn damage rating; for plant injury at 62.5 g/ha: 62.5 g ai/ha, read-out: Corn damage rating (100=total damage to plant; 0=no damage to plant); for plant injury at 62.5 g/ha / plant injury at 250 g/ha: evaluated after 13 days; for plant injury at 250 g/ha: 250 g ai/ha, read-out: damage to plant, Corn (100=total damage to plant; 0=no damage to plant)
How it was run: as §1

[3] = system: redroot pigweed (Amaranthus retroflexus); assay: Test G Post-Emergence Protocol; settings: Amaranthus retroflexus, post-emergence, 312 h; for pest or weed control at 15.625 g/ha: 15.625 g ai/ha, evaluated after 13 days (100=total damage to plant; 0=no damage to plant), read-out: Pigweed, Redroot damage rating; for pest or weed control at 62.5 g/ha: 62.5 g ai/ha, read-out: Pigweed, Redroot damage rating (100=total damage to plant; 0=no damage to plant); for pest or weed control at 62.5 g/ha / pest or weed control at 250 g/ha: evaluated after 13 days; for pest or weed control at 250 g/ha: 250 g ai/ha, read-out: damage to plant, Pigweed, Redroot (100=total damage to plant; 0=no damage to plant)
How it was run: as §1

[4] = system: velvetleaf (Abutilon theophrasti); assay: Test G Post-Emergence Protocol; settings: Abutilon theophrasti, post-emergence, 312 h; for pest or weed control at 15.625 g/ha: 15.625 g ai/ha, evaluated after 13 days (100=total damage to plant; 0=no damage to plant), read-out: Velvetleaf damage rating; for pest or weed control at 62.5 g/ha: 62.5 g ai/ha, read-out: Velvetleaf damage rating (100=total damage to plant; 0=no damage to plant); for pest or weed control at 62.5 g/ha / pest or weed control at 250 g/ha: evaluated after 13 days; for pest or weed control at 250 g/ha: 250 g ai/ha, read-out: damage to plant, Velvetleaf (100=total damage to plant; 0=no damage to plant)
How it was run: as §1

[5] = system: giant foxtail (Setaria faberi); assay: Test G Post-Emergence Protocol; settings: Setaria faberi, post-emergence, 312 h; for pest or weed control at 15.625 g/ha: 15.625 g ai/ha, evaluated after 13 days (100=total damage to plant; 0=no damage to plant), read-out: Foxtail, Giant damage rating; for pest or weed control at 62.5 g/ha: 62.5 g ai/ha, read-out: Foxtail, Giant damage rating (100=total damage to plant; 0=no damage to plant); for pest or weed control at 62.5 g/ha / pest or weed control at 250 g/ha: evaluated after 13 days; for pest or weed control at 250 g/ha: 250 g ai/ha, read-out: damage to plant, Foxtail, Giant (100=total damage to plant; 0=no damage to plant)
How it was run: as §1

[6] = system: ivy-leaved morning glory (Ipomoea hederacea); assay: Test G Post-Emergence Protocol; settings: Ipomoea, post-emergence, 312 h; for pest or weed control at 15.625 g/ha: 15.625 g ai/ha, evaluated after 13 days (100=total damage to plant; 0=no damage to plant), read-out: Morningglory, Ivy-leaved damage rating; for pest or weed control at 62.5 g/ha: 62.5 g ai/ha, read-out: Morningglory, Ivy-leaved damage rating (100=total damage to plant; 0=no damage to plant); for pest or weed control at 62.5 g/ha / pest or weed control at 250 g/ha: evaluated after 13 days; for pest or weed control at 250 g/ha: 250 g ai/ha, read-out: damage to plant, Morningglory, Ivy-leaved (100=total damage to plant; 0=no damage to plant)
How it was run: as §1

[7] = system: barnyardgrass (Echinochloa crus-galli); assay: Test G Pre-Emergence Protocol; settings: Echinochloa crus-galli, pre-emergence, 312 h, evaluated after 13 days; for pest or weed control at 15.625 g/ha: 15.625 g ai/ha, read-out: Barnyard grass damage rating (100=total damage to plant; 0=no damage to plant); for pest or weed control at 62.5 g/ha: 62.5 g ai/ha, 100=total damage to plant, 0=no damage to plant, read-out: plant damage rating, Barnyardgrass; for pest or weed control at 250 g/ha: 250 g ai/ha, read-out: Barnyardgrass damage rating (100=total damage to plant; 0=no damage to plant)
How it was run: (§2)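 Spraying took place one day after sowing, at 15.625, 62.5 or 250 g/ha, using an acetone/water (50:50) spray solution containing 0.5% Tween 20. Plants were kept under glasshouse conditions (24/16 °C, 14 h light, 65% humidity, watered twice daily), and injury was rated 0–100 at day 13.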

corn (Zea mays) [8] = assay: Test G Pre-Emergence Protocol; settings: Zea mays, pre-emergence, 312 h, evaluated after 13 days; for plant injury at 15.625 g/ha: 15.625 g ai/ha; for plant injury at 15.625 g/ha / plant injury at 250 g/ha: read-out: Corn damage rating (100=total damage to plant; 0=no damage to plant); for plant injury at 62.5 g/ha: 62.5 g ai/ha, 100=total damage to plant, 0=no damage to plant, read-out: plant damage rating, Corn; for plant injury at 250 g/ha: 250 g ai/ha
How it was run: as §2

[9] = system: redroot pigweed (Amaranthus retroflexus); assay: Test G Pre-Emergence Protocol; settings: Amaranthus retroflexus, pre-emergence, 312 h, evaluated after 13 days; for pest or weed control at 15.625 g/ha: 15.625 g ai/ha; for pest or weed control at 15.625 g/ha / pest or weed control at 250 g/ha: read-out: Pigweed, Redroot damage rating (100=total damage to plant; 0=no damage to plant); for pest or weed control at 62.5 g/ha: 62.5 g ai/ha, 100=total damage to plant, 0=no damage to plant, read-out: plant damage rating, Pigweed, Redroot; for pest or weed control at 250 g/ha: 250 g ai/ha
How it was run: as §2

[10] = system: velvetleaf (Abutilon theophrasti); assay: Test G Pre-Emergence Protocol; settings: Abutilon theophrasti, pre-emergence, 312 h, evaluated after 13 days; for pest or weed control at 15.625 g/ha: 15.625 g ai/ha; for pest or weed control at 15.625 g/ha / pest or weed control at 250 g/ha: read-out: Velvetleaf damage rating (100=total damage to plant; 0=no damage to plant); for pest or weed control at 62.5 g/ha: 62.5 g ai/ha, 100=total damage to plant, 0=no damage to plant, read-out: plant damage rating, Velvetleaf; for pest or weed control at 250 g/ha: 250 g ai/ha
How it was run: as §2

[11] = system: giant foxtail (Setaria faberi); assay: Test G Pre-Emergence Protocol; settings: Setaria faberi, pre-emergence, 312 h, evaluated after 13 days; for pest or weed control at 15.625 g/ha: 15.625 g ai/ha; for pest or weed control at 15.625 g/ha / pest or weed control at 250 g/ha: read-out: Foxtail, Giant damage rating (100=total damage to plant; 0=no damage to plant); for pest or weed control at 62.5 g/ha: 62.5 g ai/ha, 100=total damage to plant, 0=no damage to plant, read-out: plant damage rating, Foxtail, Giant; for pest or weed control at 250 g/ha: 250 g ai/ha
How it was run: as §2

[12] = system: ivy-leaved morning glory (Ipomoea hederacea); assay: Test G Pre-Emergence Protocol; settings: Ipomoea, pre-emergence, 312 h, evaluated after 13 days; for pest or weed control at 15.625 g/ha: 15.625 g ai/ha, read-out: Morning-glory, Ivy-leaved damage rating (100=total damage to plant; 0=no damage to plant); for pest or weed control at 62.5 g/ha: 62.5 g ai/ha, 100=total damage to plant, 0=no damage to plant, read-out: plant damage rating, Morningglory, Ivy-leaved; for pest or weed control at 250 g/ha: 250 g ai/ha, read-out: Morningglory, Ivy-leaved damage rating (100=total damage to plant; 0=no damage to plant)
How it was run: as §2

SMILES | pest or weed control at 15.625 g/ha [1] [%] | pest or weed control at 62.5 g/ha [1] [%] | pest or weed control at 250 g/ha [1] [%] | plant injury at 15.625 g/ha (corn (Zea mays) [2]) [%] | plant injury at 62.5 g/ha (corn (Zea mays) [2]) [%] | plant injury at 250 g/ha (corn (Zea mays) [2]) [%] | pest or weed control at 15.625 g/ha [3] [%] | pest or weed control at 62.5 g/ha [3] [%] | pest or weed control at 250 g/ha [3] [%] | pest or weed control at 15.625 g/ha [4] [%] | pest or weed control at 62.5 g/ha [4] [%] | pest or weed control at 250 g/ha [4] [%] | pest or weed control at 15.625 g/ha [5] [%] | pest or weed control at 62.5 g/ha [5] [%] | pest or weed control at 250 g/ha [5] [%] | pest or weed control at 15.625 g/ha [6] [%] | pest or weed control at 62.5 g/ha [6] [%] | pest or weed control at 250 g/ha [6] [%] | pest or weed control at 15.625 g/ha [7] [%] | pest or weed control at 62.5 g/ha [7] [%] | also measured
CN1C[C@H](c2ccc(C(F)(F)F)cc2)[C@@H](C(=O)Nc2ccc(F)c(C(F)(F)F)c2)C1=O (racemic) [Compound 1443] | 0 | 0 | 0 | 0 | 0 | 0 | 0 | 0 | 0 | 0 | 0 | 0 | 0 | 0 | 0 | 0 | 0 | 0 | 0 | 0 | pest or weed control at 250 g/ha [7]: 0%; plant injury at 15.625 g/ha (corn (Zea mays) [8]): 0%; plant injury at 62.5 g/ha (corn (Zea mays) [8]): 0%; plant injury at 250 g/ha (corn (Zea mays) [8]): 0%; pest or weed control at 15.625 g/ha [9]: 0%; pest or weed control at 62.5 g/ha [9]: 0%; pest or weed control at 250 g/ha [9]: 0%; pest or weed control at 15.625 g/ha [10]: 0%; pest or weed control at 62.5 g/ha [10]: 0%; pest or weed control at 250 g/ha [10]: 0%; pest or weed control at 15.625 g/ha [11]: 0%; pest or weed control at 62.5 g/ha [11]: 0%; pest or weed control at 250 g/ha [11]: 0%; pest or weed control at 15.625 g/ha [12]: 0%; pest or weed control at 62.5 g/ha [12]: 0%; pest or weed control at 250 g/ha [12]: 0%
Cc1c(C#N)cccc1NC(=O)[C@H]1C(=O)N(C)C[C@@H]1c1ccc(C(F)(F)F)cc1 (racemic) [Compound 1444] | 0 | 10 | 20 | 10 | 10 | 10 | 10 | 10 | 20 | 0 | 0 | 0 | 0 | 60 | 60 | 0 | 10 | 10 | 10 | 30 | pest or weed control at 250 g/ha [7]: 60%; plant injury at 15.625 g/ha (corn (Zea mays) [8]): 0%; plant injury at 62.5 g/ha (corn (Zea mays) [8]): 0%; plant injury at 250 g/ha (corn (Zea mays) [8]): 50%; pest or weed control at 15.625 g/ha [9]: 0%; pest or weed control at 62.5 g/ha [9]: 40%; pest or weed control at 250 g/ha [9]: 50%; pest or weed control at 15.625 g/ha [10]: 0%; pest or weed control at 62.5 g/ha [10]: 20%; pest or weed control at 250 g/ha [10]: 20%; pest or weed control at 15.625 g/ha [11]: 50%; pest or weed control at 62.5 g/ha [11]: 80%; pest or weed control at 250 g/ha [11]: 80%; pest or weed control at 15.625 g/ha [12]: 10%; pest or weed control at 62.5 g/ha [12]: 0%; pest or weed control at 250 g/ha [12]: 40%
